“Also recorded” adds a separate entry of the source. Where two headings read alike, the source gives them in different places.
Legend:
[1] = test system: hypoxia-induced retinal neovascularization; assay: Neonatal rat retinopathy (ROP) model, alternating hypoxia/hyperoxia, histologic scoring of eyes; format: in vivo
Protocol: We evaluated its effect on retinal neovascularization in vivo, using a neonatal rat retinopathy model. Methods: We used, on alternating days, hypoxia (10% O2) and hyperoxia (50% O2) during the first 14 days of neonatal rats, to induce retinal neovascularization. […] At day 18 the eyes were evaluated for the presence of epiretinal and vitreal hemorrhage, neovascularization and epiretinal proliferation.
Int. Jnl. Experimental Diab. Res., Vol. 1, pp. 39-47 Reprints available directly from the publisher Photocopying permitted by license only (C) 2000 OPA (Overseas Publishers Association) N.V. Published by license under the Harwood Academic Publishers imprint, part of The Gordon and Breach Publishing Group. Printed in Malaysia. […] We evaluated its effect on retinal neo- vascularization in vivo, using a neonatal rat retino- pathy model. Methods: We used, on alternating days, hypoxia (10%O2) and hyperoxia (50%02) during the first 14 days of neonatal rats, to induce retinal neovascu- larization. […] At day 18 the eyes were evaluated for the presence of epiretinal and vitreal hemorrhage, neovasculariza- tion and epiretinal proliferation. […] Keywords: Retinopathy of prematurity, angiogenesis, insulin- like growth factor, growth hormone, neovascularization INTRODUCTION Retinal neovascularization is a common feature of several eye diseases characterized by retinal hypoxia, such as proliferative diabetic retino- pathy (PDR) and retinopathy of prematurity (ROP). While the underlying pathology may be different in these conditions, the neovascular pro- cess itself leads to destruction of normal retina and eventually causes blindness. *Corresponding author. Department of Ophthalmology, Hadassah University Hospital, P. O. Box 12000, Jerusalem 91120, Israel. Tel.: +972-2-677 6927, Fax: +972-2-643 4434, e-maih edward@md2.huji.ac.il 39 40 E. AVERBUKH et al. Growth hormone (GH) and insulin-like growth factor I (IGF-I) have been implicated in the pathogenesis of PDR (Lundbaek et al., 1970; Dills et al., 1991). […] High vitre- ous levels of IGF-I and IGF binding proteins (IGFBPs) were found in patients with neovas- cular eye disease related to diabetes and to other ischemic retinal conditions (Meyer-Schwickerath et al., 1993). In addition, a recent study demon- strated the essential role of GH and IGF-I in the development of retinal neovascularization in the ROP model in mice (Smith et al., 1997). Decades ago, before the advent of lasers, elimination of GH production by pituitary ablation was an accepted therapy for PDR (Bradley, Rees and Fager, 1965). […] METHODS Animals Fifty-six neonatal Sabra rats (provided by the Harlan Laboratories, Jerusalem, Israel) were divided into experimental groups of eight to ten animals from mixed litters, not divided ac- cording to gender. At the age of one day the group with the lactating mother were placed in an incubator with a controlled oxygen con- centration. […] All the animals were maintained and treated in ac- cordance with the Association for Research in Vision and Ophthalmology statement on the use of animals in ophthalmic and vision re- search. Retinal neovascularization was induced by alternating oxygen concentrations as pre- viously described (Reynaud and Dorey, 1994; Penn, Tolman and Lowery, 1993). Briefly, the animals were exposed on alternating days to hypoxia (10% O2-24h) and hyperoxia (50% O2-24h) during their first 14 days, followed by four days in room air. Hypoxia was produced by mixing air with nitrogen, and hyperoxia by mixing air with oxygen. A minimal flow of two liters per minute was maintained. […] At day 18 the rats were anesthetized with ether and sacrificed. The eyes were enu- cleated and placed in formaldehyde. […] These areas are prone to ischemia when the oxygen level is lowered.

[2] = test system: serum insulin-like growth factor I (IGF-I); assay: Serum IGF-I (RIA after acid-methanol extraction) after subcutaneous octreotide injection; format: in vivo, rat
[3] = design: method as in Bauer et al., 1982; settings: ref Bauer et al., 1982; cited from earlier work
Source text: Int. Jnl. Experimental Diab. Res., Vol. 1, pp. 39-47 Reprints available directly from the publisher Photocopying permitted by license only (C) 2000 OPA (Overseas Publishers Association) N.V. Published by license under the Harwood Academic Publishers imprint, part of The Gordon and Breach Publishing Group. Printed in Malaysia.

[4] = Serum octreotide level (RIA) after subcutaneous injection in neonatal rats; settings: Sabra, rat, sc
[5] = test system: human retinal endothelial cell (HREC); settings: HREC stimulated by IGF-I and bFGF, ref Grant et al., 1993b, cited from earlier work
Source text: (§1) Int. Jnl. Experimental Diab. […] Printed in Malaysia.

[6] = test system: IGF-I mRNA, GH stimulated hepatocytes; settings: ref Serri et al., 1992, cited from earlier work
Source text: as §1

[7] = test system: serum growth hormone (GH); assay: Serum rat growth hormone (RIA) after subcutaneous octreotide injection; format: in vivo
[8] = stated for both the octreotide-treated and the control groups

C[C@@H](O)[C@@H]1NC(=O)[C@H](CCCCN)NC(=O)[C@@H](Cc2c[nH]c3ccccc23)NC(=O)[C@H](Cc2ccccc2)NC(=O)[C@@H](NC(=O)[C@H](N)Cc2ccccc2)CSSC[C@@H](C(=O)N[C@H](CO)[C@@H](C)O)NC1=O [octreotide]
Effect of injections on retinal pathology ([1]; 0.7 μg/g BW s.c. twice daily, Mann-Whitney Rank Sum Test vs saline): no statistically significant effect
Eyes in which NV was found ([1]; octreotide-treated eyes, day 18 (control 27%)): 35%
Eyes affected by any of epiretinal and vitreal hemorrhages [1, 8]: ~70%
Eyes affected by epiretinal or by vitreal hemorrhages, each one of them [1, 8]: approximately 45%
Eyes affected by PVR ([1]; stated for each group): less than 40%
Retinal neovascularization ([1]; twice-daily injections, neonatal rat ROP model): not inhibited
Serum IGF-I level vs control group ([2]; 2 hours after injection): unchanged; also recorded: similar
Elevation of serum IGF-I level vs control group ([2]; 9 hours after injection, p 0.06): 19%
Elevation of serum IGF-I level vs control group ([2]; 14 hours after injection, p = 0.02): 26%
Plasma half-life [3]: 1.5 h
half-life ([4]; 0.7 μg/g BW): 1.63 h
level at 9 h ([4]; 20 ug): 26.4 ng/mL
level at 14 h ([4]; 20 ug): 3.2 ng/mL
Inhibition of [3H]thymidine incorporation ([5]; octreotide level 1.6 μg/l): 15%
Inhibition of [3H]thymidine incorporation ([5]; octreotide level 16 μg/l): 35%
Inhibition of [3H]thymidine incorporation ([5]; octreotide level 164 μg/l): 60%
IGF-I mRNA abundance in cultured GH stimulated hepatocytes ([6]; high concentrations of octreotide (30 and 300 μg/l)): no effect
IGF-I mRNA levels in cultured GH stimulated hepatocytes ([6]; low octreotide concentrations (0.3 and 3 μg/l)): significantly reduced
Serum GH level vs control group ([7]; 9 and 14 hours after injection): returned to baseline; also recorded: comparable
Decrease of serum GH level compared with saline injected animals ([7]; 2 hours after injection, p = 0.002): 40%

Reference: paper PMC2477751 (International journal of experimental diabetes research, 2000)
